The target of this assay is hATX/ENPP2 (Homo sapiens, UniProt Q13822). The assay can be described thus: hATX/ENPP2 biochemical assay using 16:0-LPC as substrate (Amplex Red/choline oxidase/HRP fluorescence). To be noted: hENPP2 2.5 nM, LPC (16:0) substrate. How it is done:
The enzyme is diluted in 50 mM Tris-HCl pH 8.0, 140 mM NaCl, 5 mM CaCl2, 0.01% Triton X-100 in a total volume of 5 μL. The aqueous solution of enzyme is added to the wells and incubated with different concentrations of the compounds at room temperature for 15 min. The reaction is started by the addition of 5 μL of 80 μM LPC (16:0) and 10 μL of the detection mixture containing 200 μM Amplex Red, 10 U/mL choline oxidase and 4 U/mL HRP. Fluorescence at 590 nm was measured kinetically with excitation at 530 nm. The slope of the curve (from 60 to 70 min of the reaction time) was used to calculate the compounds' IC50 values.

SMILES strings stand for the structures. Structures can show the parent of a compound that is named as a salt. Some results are limits rather than exact numbers.

The values that follow come from US11970493B2, “Autotaxin inhibitor compounds” (ILDONG PHARMACEUTICAL CO., LTD., priority 2020, dated 2024).

What is called IC50 is the concentration that gives 50% inhibition. For the molecule `CCc1nc2ccc(-c3cnc(C(=O)N4CC[C@H](O)C4)nc3)cn2c1N(C)c1nc(-c2ccc(F)cc2)c(C#N)s1` [Compound 48, (S)-2-((2-ethyl-6-(2-(3-hydroxypyrrolidine-1-carbonyl)pyrimidin-5-yl)imidazo[1,2-a]pyridin-3-yl)(methyl)amino)-4-(4-fluorophenyl) thiazole-5-carbonitrile], the IC50 lay within 0.02 to 0.2 µM. For `CCc1nc2ccc(-c3cnc(C(=O)N4CC[C@@H](O)C4)nc3)cn2c1N(C)c1nc(-c2ccc(F)cc2)c(C#N)s1` [Compound 49, (R)-2-((2-ethyl-6-(2-(3-hydroxypyrrolidine-1-carbonyl)pyrimidin-5-yl)imidazo[1,2-a]pyridin-3-yl)(methyl)amino)-4-(4-fluorophenyl) thiazole-5-carbonitrile], the concentration for half-maximal inhibition (IC50) fell in the range of 0.02 to 0.2 µM. The molecule `CCc1nc2ccc(-c3cnc(C(=O)NC4CNC4)nc3)cn2c1N(C)c1nc(-c2ccc(F)cc2)c(C#N)s1` [Compound 50, N-(azetidin-3-yl)-5-(3-((5-cyano-4-(4-fluorophenyl)thiazol-2-yl) (methyl)amino)-2-ethylimidazo[1,2-a]pyridin-6-yl)pyrimidine-2-carboxamide] registered a half-maximal inhibitory concentration (IC50) of 0.02 to 0.2 µM. The figure for `CCc1nc2ccc(-c3cnc(C(=O)NC4CCNCC4)nc3)cn2c1N(C)c1nc(-c2ccc(F)cc2)c(C#N)s1` [Compound 51, 5-(3-((5-cyano-4-(4-fluorophenyl)thiazol-2-yl) (methyl)amino)-2-ethylimidazo[1,2-a]pyridin-6-yl)-N-(piperidin-4-yl)pyrimidine-2-carboxamide] is 0.02 to 0.2 µM; for `CCc1nc2ccc(-c3cnc(CC(=O)N4CC(O)C4)nc3)cn2c1N(C)c1nc(-c2ccc(F)cc2)c(C#N)s1` [Compound 52, 2-((2-ethyl-6-(2-(2-(3-hydroxyazetidin-1-yl)-2-oxoethyl)pyrimidin-5-yl)imidazo[1,2-a]pyridin-3-yl)(methyl)amino)-4-(4-fluorophenyl)thiazole-5-carbonitrile] it is 0.02 to 0.2 µM; for `CCc1nc2ccc(-c3cnc(CC(=O)N4CC(NC5CNC5)C4)nc3)cn2c1N(C)c1nc(-c2ccc(F)cc2)c(C#N)s1` [Compound 53, 2-((6-(2-(2-(3-(azetidin-3-ylamino)azetidin-1-yl)-2-oxoethyl)pyrimidin-5-yl)-2-ethylimidazo[1,2-a]pyridin-3-yl)(methyl)amino)-4-(4-fluorophenyl)thiazole-5-carbonitrile] it is 0.02 to 0.2 µM. The figure for `CCc1nc2ccc(-c3cnc(CC(=O)N4CC(NC)C4)nc3)cn2c1N(C)c1nc(-c2ccc(F)cc2)c(C#N)s1` [Compound 54, 2-((2-ethyl-6-(2-(2-(3-(methylamino)azetidin-1-yl)-2-oxoethyl)pyrimidin-5-yl)imidazo[1,2-a]pyridin-3-yl)(methyl)amino)-4-(4-fluorophenyl) thiazole-5-carbonitrile] is 0.02 to 0.2 µM; for `CCc1nc2ccc(-c3cnc(CC(=O)N4CC[C@H](O)C4)nc3)cn2c1N(C)c1nc(-c2ccc(F)cc2)c(C#N)s1` [Compound 55, (S)-2-((2-ethyl-6-(2-(2-(3-hydroxypyrrolidin-1-yl)-2-oxoethyl)pyrimidin-5-yl)imidazo[1,2-a]pyridin-3-yl)(methyl)amino)-4-(4-fluorophenyl)thiazole-5-carbonitrile] it is 0.02 to 0.2 µM.

Turning to `CCc1nc2ccc(-c3cnc(CC(=O)N4CC[C@@H](O)C4)nc3)cn2c1N(C)c1nc(-c2ccc(F)cc2)c(C#N)s1` [Compound 56, (R)-2-((2-ethyl-6-(2-(2-(3-hydroxypyrrolidin-1-yl)-2-oxoethyl)pyrimidin-5-yl)imidazo[1,2-a]pyridin-3-yl)(methyl)amino)-4-(4-fluorophenyl)thiazole-5-carbonitrile], the IC50 lay within 0.02 to 0.2 µM. `CCc1nc2ccc(-c3cnc(CC(=O)N4CCC(O)CC4)nc3)cn2c1N(C)c1nc(-c2ccc(F)cc2)c(C#N)s1` [Compound 57, 2-((2-ethyl-6-(2-(2-(4-hydroxypiperidin-1-yl)-2-oxoethyl)pyrimidin-5-yl)imidazo[1,2-a]pyridin-3-yl)(methyl)amino)-4-(4-fluorophenyl) thiazole-5-carbonitrile] gave an IC50 of 0.02 to 0.2 µM. Turning to `CCc1nc2ccc(-c3cnc(CC(=O)N4CCNCC4)nc3)cn2c1N(C)c1nc(-c2ccc(F)cc2)c(C#N)s1` [Compound 58, 2-((2-ethyl-6-(2-(2-oxo-2-(piperazin-1-yl)ethyl)pyrimidin-5-yl)imidazo[1,2-a]pyridin-3-yl)(methyl)amino)-4-(4-fluorophenyl)thiazole-5-carbonitrile], the IC50 lay in the range of 0.02 to 0.2 µM.

For `CCc1nc2ccc(-c3cnc(CC(=O)N4CCOCC4)nc3)cn2c1N(C)c1nc(-c2ccc(F)cc2)c(C#N)s1` [Compound 59, 2-((2-ethyl-6-(2-(2-morpholino-2-oxoethyl)pyrimidin-5-yl)imidazo[1,2-a]pyridin-3-yl)(methyl)amino)-4-(4-fluorophenyl)thiazole-5-carbonitrile], the IC50 is 0.02 to 0.2 µM. `CCc1nc2ccc(-c3cnc(CC(N)=O)nc3)cn2c1N(C)c1nc(-c2ccc(F)cc2)c(C#N)s1` [Compound 60, 2-(5-(3-((5-cyano-4-(4-fluorophenyl)thiazol-2-yl)(methyl)amino)-2-ethylimidazo[1,2-a]pyridin-6-yl)pyrimidin-2-yl)acetamide] displayed a half-maximal inhibitory concentration (IC50) of 0.02 to 0.2 µM. `CCc1nc2ccc(-c3cnc(CC(=O)NC)nc3)cn2c1N(C)c1nc(-c2ccc(F)cc2)c(C#N)s1` [Compound 61, 2-(5-(3-((5-cyano-4-(4-fluorophenyl)thiazol-2-yl)(methyl)amino)-2-ethylimidazo[1,2-a]pyridin-6-yl)pyrimidin-2-yl)-N-methyl acetamide]: the IC50 lay in the range of 0.02 to 0.2 µM. With `CCc1nc2ccc(-c3cnc(CC(=O)NC4CC4)nc3)cn2c1N(C)c1nc(-c2ccc(F)cc2)c(C#N)s1` [Compound 62, 2-(5-(3-((5-cyano-4-(4-fluorophenyl)thiazol-2-yl)(methyl)amino)-2-ethylimidazo[1,2-a]pyridin-6-yl)pyrimidin-2-yl)-N-cyclopropyl acetamide], the IC50 lay in the range of 0.02 to 0.2 µM. The figure for `CCc1nc2ccc(-c3cnc(CC(=O)NC4CNC4)nc3)cn2c1N(C)c1nc(-c2ccc(F)cc2)c(C#N)s1` [Compound 63, N-(azetidin-3-yl)-2-(5-(3-((5-cyano-4-(4-fluorophenyl)thiazol-2-yl)(methyl)amino)-2-ethylimidazo[1,2-a]pyridin-6-yl)pyrimidin-2-yl)acetamide] is greater than 0.2 µM. Molecule `CCc1nc2ccc(-c3cnc(CC(=O)NC4(C#N)CC4)nc3)cn2c1N(C)c1nc(-c2ccc(F)cc2)c(C#N)s1` [Compound 64, 2-(5-(3-((5-cyano-4-(4-fluorophenyl)thiazol-2-yl)(methyl)amino)-2-ethylimidazo[1,2-a]pyridin-6-yl)pyrimidin-2-yl)-N-(1-cyanocyclopropyl)acetamide] yielded an IC50 of 0.02 to 0.2 µM. Molecule `CCc1nc2ccc(-c3cnc(CC(=O)NC4CCNCC4)nc3)cn2c1N(C)c1nc(-c2ccc(F)cc2)c(C#N)s1` [Compound 65, 2-(5-(3-((5-cyano-4-(4-fluorophenyl)thiazol-2-yl)(methyl)amino)-2-ethylimidazo [1,2-a]pyridin-6-yl)pyrimidin-2-yl)-N-(piperidin-4-yl)acetamide] showed an IC50 of 0.02 to 0.2 µM. Molecule `CCc1nc2ccc(-c3cnc(N4CCN(C(=O)NC5CCNCC5)CC4)nc3)cn2c1N(C)c1nc(-c2ccc(F)cc2)c(C#N)s1` [Compound 67, 4-(5-(3-((5-cyano-4-(4-fluorophenyl)thiazol-2-yl)(methyl)amino)-2-ethylimidazo[1,2-a]pyridin-6-yl)pyrimidin-2-yl)-N-(piperidin-4-yl)piperazine-1-carboxamide] had an IC50 of 0.02 to 0.2 µM.

In turn, `CCc1nc2ccc(-c3cnc(N4CCC(NC5CNC5)CC4)nc3)cn2c1N(C)c1nc(-c2ccc(F)cc2)c(C#N)s1` [Compound 68 formate, 2-((6-(2-(4-(azetidin-3-ylamino)piperidin-1-yl)pyrimidin-5-yl)-2-ethylimidazo[1,2-a]pyridin-3-yl)(methyl)amino)-4-(4-fluorophenyl)thiazole-5-carbonitrile formate] came in with a half-maximal inhibitory concentration (IC50) of no more than 0.02 µM.

The molecule `CCc1nc2ccc(-c3cnc(N4CCC(NC5CCNCC5)CC4)nc3)cn2c1N(C)c1nc(-c2ccc(F)cc2)c(C#N)s1` [Compound 69 formate, 2-((2-ethyl-6-(2-(4-(piperidin-4-ylamino)piperidin-1-yl)pyrimidin-5-yl)imidazo[1,2-a]pyridin-3-yl)(methyl)amino)-4-(4-fluorophenyl) thiazole-5-carbonitrile formate] displayed an IC50 of no more than 0.02 µM. For `CCc1nc2ccc(-c3cnc(N4CCC(C(=O)NC5CNC5)CC4)nc3)cn2c1N(C)c1nc(-c2ccc(F)cc2)c(C#N)s1` [Compound 72 hydrochloride, N-(azetidin-3-yl)-1-(5-(3-((5-cyano-4-(4-fluorophenyl)thiazol-2-yl)(methyl)amino)-2-ethylimidazo[1,2-a]pyridin-6-yl)pyrimidin-2-yl)piperidine-4-carboxamide hydrochloride], the half-maximal inhibitory concentration (IC50) is no more than 0.02 µM. Molecule `CCc1nc2ccc(-c3cnc(N4CCC(C(=O)NC5CCNCC5)CC4)nc3)cn2c1N(C)c1nc(-c2ccc(F)cc2)c(C#N)s1` [Compound 73, 1-(5-(3-((5-cyano-4-(4-fluorophenyl)thiazol-2-yl)(methyl)amino)-2-ethylimidazo[1,2-a]pyridin-6-yl)pyrimidin-2-yl)-N-(piperidin-4-yl)piperidine-4-carboxamide] yielded an IC50 of no more than 0.02 µM. The figure for `CCc1nc2ccc(-c3cnc(N4CCC(NC(=O)[C@H]5C[C@H](O)CN5)CC4)nc3)cn2c1N(C)c1nc(-c2ccc(F)cc2)c(C#N)s1` [Compound 74, (2R,4S)—N-(1-(5-(3-((5-cyano-4-(4-fluorophenyl)thiazol-2-yl)(methyl)amino)-2-ethylimidazo[1,2-a]pyridin-6-yl)pyrimidin-2-yl)piperidin-4-yl)-4-hydroxypyrrolidine-2-carboxamide] is no more than 0.02 µM.
